# Entries after “also recorded” stand apart in the source; their conditions may differ.
# Assays:
# Assay type in all cases: cell-based, Sprague-Dawley rat
# hippocampal slice [1] = test: Effect of bath-applied drugs on carbachol-induced beta waves in hippocampal slices on a 64-electrode MED array, FFT analysis; conditions: for power within the 20 Hz band / shift in the peak: 10 μM Ampakine after carbachol
# Text: (§1) The general procedures for the preparation of the Multi-Electrode Dish (Matsushita Electric Industrial Co. Ltd., Osaka, Japan: “the MED probe”) were described above. Procedures for the MED probe preparation are also described by Oka et al. […]. The device has an array of 64 planar microelectrodes, each having a size of 50×50 μm, arranged in an 8 by 8 pattern. Probes come with two types of interpolar distance, 150 μm (Panasonic: MED-P515AP) and 450 μm (Panasonic: MED-P545AP).
# (§2) To provide sufficient adhesion of the neuronal sample slice to the MED surface, the surface of the MED probe was treated with 0.1% polyethylenimine (Sigma: P-3143) in 25 mM borate buffer, pH 8.4, for 8 hours at room temperature. The probe surface was rinsed 3 times with sterile distilled water. The probe (chamber) was then filled with DMEM/F-12 mixed medium, containing 10% fetal bovine serum (GIBCO: 16141-079) and 10% horse serum (GIBCO: 16050-122), for at least 1 hour at 37° C. DMEM/F-12 mixed medium is a 1:1 mixture of Dulbecco's Modified Eagle's Medium and Ham's F-12 (GIBCO: D/F-12 medium, 12400-024), supplemented with N2 supplement (GIBCO: 17502-014) and hydrocortisone (20 nM, Sigma, H0888).
# (§3) A 17-24 day old Sprague-Dawley rat was sacrificed by decapitation after anesthesia using halothane (2-Bromo-2 chloro-1,1,1 -trifluoroethane, Sigma: B4388), and the whole brain was removed carefully. The brain was immediately soaked in ice-cold, oxygenated preparation buffer of the following composition (in mM): 124 NaCl, 26 NaHCO3, 10 glucose, 3 KCl, 1.25 NaH2PO4, 2 CaCl2, 2 MgSO4, for approximately 2 minutes. Appropriate portions of the brain were trimmed and placed on the ice-cold stage of a vibrating tissue slicer (Leica: VT-1000S). The stage was immediately filled with both oxygenated and frozen preparation buffers. The thickness of each tissue slice was 350 μm. Each slice was gently taken off the blade by a painting brush, trimmed, and immediately soaked in the oxygenated preparation buffer for 1 hour at room temperature. Then a slice was placed on the center of the MED probe. The slice was positioned to cover the 8×8 array. After positioning the slice, the MED probe was immediately placed in a box filled with 95% O^2 and 5% CO^2 and allowed to recover at 32° C. for 1 hour.
# (§4) During electrophysiological recording, the slices on the MED probe were placed in a small CO2 incubator (Asahi Lifescience: model 4020) at 32° C. After recovery of the slice on the MED probe, the medium was replaced with DMEM/F-12 mixed medium without serum. The slices were on the interface, and contacted with a moisturized 95% O2 and 5% CO2 gas mixture. In this condition, the responses were recorded for more than 2 hours.
# (§5) Drugs were purchased from RBI (diazepam, bicuculline, CNQX, 2-hydroxysaclofen) or Sigma (all other compounds). CX614 and CX691 were produced by Cortex Pharmaceuticals Inc. (Irvine, Calif.). All drugs were bath applied at known concentrations and were prepared daily from frozen aliquots.
# (§6) Spontaneous and evoked field potentials at all 64 sites were recorded simultaneously with the multi-channel recording system (Matsushita Electric Industrial Co. Ltd, the “MED64 system”) at a 20 kHz sampling rate. In the case of the evoked response, one of the planar microelectrodes out of the 64 available was used for cathode of stimulating. Bipolar constant current pulses (10 to 50 μA, 0.1 msec) were produced by the data acquisition software through the isolator. The stimulating microelectrode was selected by the 64 switch-box. The measured field potentials were then subjected to analysis using the CSD analysis (Nicholson et al) discussed below.
# entorhinal cortex = test: Carbachol-induced 40 Hz rhythm in retrohippocampal cortex, MED broad array
# Method: as §3, with “Then a slice was placed on the center of the MED probe. The slice was positioned to cover the 8×8 array. After positioning the slice, the MED probe was immediately placed in a box filled with 95% O^2 and 5% CO^2 and allowed to recover at 32° C. for 1 hour.” left out
# During electrophysiological recording, the slices on the MED probe were placed in a small CO2 incubator (Asahi Lifescience: model 4020) at 32° C. […] In this condition, the responses were recorded for more than 2 hours.
# Spontaneous and evoked field potentials at all 64 sites were recorded simultaneously with the multi-channel recording system (Matsushita Electric Industrial Co. Ltd, the “MED64 system”) at a 20 kHz sampling rate. […] The measured field potentials were then subjected to analysis using the CSD analysis (Nicholson et al) discussed below. […]
# hippocampal slice [2] = test: Carbachol induction of rhythmic activity in hippocampus (fields CA1 and CA3), MED array, FFT analysis; conditions: for group mean dominant CA1 frequency / group mean dominant CA3 frequency: mean ± s.d.
# Text: as §1, §2, §3, §4, §5, §6
# [3] = diazepam plus carbachol, FIG. 13C
compound,measurement,setting,value
O=C(c1ccc2nonc2c1)N1CCCCC1 [CX691],power within the 20 Hz band,hippocampal slice [1],significant increase
same,shift in the peak,hippocampal slice [1],10 Hz
NS(=O)(=O)c1cccc2c1c([N+](=O)[O-])cc1nc(O)c(O)nc12 [NBQX],amplitude of carbachol-induced waves,hippocampal slice [1]; 10 μM,significantly diminished and/or eliminated
same,power of carbachol-induced waves,hippocampal slice [1]; 10 μM,significant decrease
same,synchronized activity in carbachol-treated sample,hippocampal slice [1]; 10 μM,very rapid loss
O=[N+]([O-])c1cc2nc(O)c(O)nc2cc1[N+](=O)[O-] [DNQX],amplitude of carbachol-induced waves,hippocampal slice [1]; 20 μM,significantly diminished and/or eliminated
same,power of carbachol-induced waves,hippocampal slice [1]; 20 μM,significant decrease
same,synchronized activity in carbachol-treated sample,hippocampal slice [1]; 20 μM,very rapid loss
N#Cc1cc2[nH]c(=O)c(=O)[nH]c2cc1[N+](=O)[O-] [CNQX],amplitude of carbachol-induced waves,hippocampal slice [1]; 20 μM,significantly diminished and/or eliminated
same,effect on carbachol-induced high frequency rhythms,hippocampal slice [1]; 20 μM,greatly reduced
same,power of carbachol-induced waves,hippocampal slice [1]; 20 μM,significant decrease
same,synchronized activity in carbachol-treated sample,hippocampal slice [1]; 20 μM,very rapid loss
O=C1c2cc3c(cc2OC2CCCN12)OCCO3 (centres unmarked) [CX614],power within the 20 Hz band,hippocampal slice [1],significant increase
same,shift in the peak,hippocampal slice [1],10 Hz
CN1C(=O)CN=C(c2ccccc2)c2cc(Cl)ccc21 [diazepam],amplitude of beta oscillations,"hippocampal slice [1]; 3 μM diazepam, 20 μM carbachol",markedly enhanced
same,change in the frequency of the waves,"hippocampal slice [1]; 3 μM diazepam, 20 μM carbachol",not accompanied by a significant change; also recorded: without much shift
same,increase in power within the 20 Hz band over carbachol alone,hippocampal slice [1]; [3],nearly threefold increase
same,peak added at a higher (gamma) frequency,hippocampal slice [1]; [3],approximately 40 Hz
picrotoxin,effect on carbachol-induced beta waves,hippocampal slice [1]; 50 μM picrotoxin,marked reduction
"C[N+](C)(C)CCOC(N)=O [carbachol, carbyl choline chloride]",frequency of oscillations in deep layers of the medial entorhinal cortex,entorhinal cortex; carbachol 50 μM,40 Hz
same,slices with forty Hz activity in the deep layers of the entorhinal cortex,entorhinal cortex; slices with appropriately positioned electrodes,each of the 15 slices
same,slices with rhythmic activity in CA1 and CA3 close to or within the beta band (10-30 Hz),hippocampal slice [2]; after infusion of carbachol,41 of 55
same,group mean dominant CA1 frequency,hippocampal slice [2]; all slices,18.8±5.7 Hz
same,group mean dominant CA3 frequency,hippocampal slice [2]; all slices,16.4±5.7 Hz
same,group mean dominant CA1 frequency,hippocampal slice [2]; beta instances alone,19.2±4.8 Hz
same,group mean dominant CA3 frequency,hippocampal slice [2]; beta instances alone,17.3±4.2 Hz
same,peak of rhythmic activity in apical dendrites of hippocampal pyramidal cell fields,hippocampal slice [2]; carbachol 50 μM,~20 Hz
same,peak of the power spectrum,hippocampal slice [2]; example slice of FIG. 6B,20 Hz
CN1[C@@H]2CC[C@H]1C[C@@H](OC(=O)C(CO)c1ccccc1)C2 (some centres unmarked) [atropine],effect on carbachol-induced high frequency rhythms,hippocampal slice [1]; 20 μM,completely eliminated
